# From patent US11180474B2 (BRISTOL-MYERS SQUIBB COMPANY, priority 2016, dated 2021)
# pIC50: −log10 of the molar value.
# Legend:
# [1] = biological target: T1, human TLR9 (Homo sapiens, UniProt Q9NR96); test: TLR9 inhibition reporter assay (HEK-Blue cells, SEAP reporter, ODN2006 stimulation); type: cell-based; settings: HEK-Blue cells overexpressing human TLR9, ODN2006 5 nM
# T1 construct: host or cells: HEK-Blue cells
# T1 sequence (Q9NR96 26-1032): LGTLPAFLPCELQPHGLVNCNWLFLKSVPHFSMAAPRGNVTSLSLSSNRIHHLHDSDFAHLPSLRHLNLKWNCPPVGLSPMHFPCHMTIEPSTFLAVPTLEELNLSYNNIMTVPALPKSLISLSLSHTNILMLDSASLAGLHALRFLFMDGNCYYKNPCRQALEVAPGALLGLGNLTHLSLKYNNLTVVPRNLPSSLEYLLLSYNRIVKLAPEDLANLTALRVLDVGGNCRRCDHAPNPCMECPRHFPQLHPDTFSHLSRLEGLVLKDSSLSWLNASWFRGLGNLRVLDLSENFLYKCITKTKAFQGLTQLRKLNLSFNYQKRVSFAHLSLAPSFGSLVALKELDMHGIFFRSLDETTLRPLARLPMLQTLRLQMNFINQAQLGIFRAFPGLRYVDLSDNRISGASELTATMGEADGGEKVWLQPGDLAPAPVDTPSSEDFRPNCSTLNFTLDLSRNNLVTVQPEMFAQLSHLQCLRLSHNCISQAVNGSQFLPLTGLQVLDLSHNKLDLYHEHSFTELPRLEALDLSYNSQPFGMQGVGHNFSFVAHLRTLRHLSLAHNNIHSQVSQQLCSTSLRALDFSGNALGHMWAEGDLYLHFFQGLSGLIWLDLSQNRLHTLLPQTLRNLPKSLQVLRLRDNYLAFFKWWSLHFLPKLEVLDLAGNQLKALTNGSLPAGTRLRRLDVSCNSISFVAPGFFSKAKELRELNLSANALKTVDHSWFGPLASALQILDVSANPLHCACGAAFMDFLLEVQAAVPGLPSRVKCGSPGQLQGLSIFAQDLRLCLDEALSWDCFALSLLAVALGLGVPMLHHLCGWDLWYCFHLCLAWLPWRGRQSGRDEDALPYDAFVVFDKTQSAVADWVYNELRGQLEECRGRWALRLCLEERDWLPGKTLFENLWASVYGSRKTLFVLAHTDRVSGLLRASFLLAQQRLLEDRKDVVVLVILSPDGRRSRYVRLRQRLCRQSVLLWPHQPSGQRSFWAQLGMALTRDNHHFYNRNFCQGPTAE
# Protocol: (§1) TLR7/8/9 Inhibition Reporter Assays
# HEK-Blue™-cells (Invivogen) overexpressing human TLR7, TLR8 or TLR9 receptors were used for screening inhibitors of these receptors using an inducible SEAP (secreted embryonic alkaline phosphatase) reporter gene under the control of the IFN-β minimal promoter fused to five NF-κB and AP-1-binding sites. Briefly, cells are seeded into Greiner 384 well plates (15000 cells per well for TLR7, 20,000 for TLR8 and 25,000 for TLR9) and then treated with test compounds in DMSO to yield a final dose response concentration range of 0.05 nM-50 μM. After a 30 minute compound pre-treatment at room temperature, the cells are then stimulated with a TLR7 ligand (gardiquimod at a final concentration of 7.5 μM), TLR8 ligand (R848 at a final concentration of 15.9 μM) or TLR9 ligand (ODN2006 at a final concentration of 5 nM) to activate NF-κB and AP-1 which induce the production of SEAP. After a 22 hour incubation at 37° C., 5% CO2, SEAP levels are determined with the addition of HEK-Blue™ Detection reagent (Invivogen), a cell culture medium that allows for detection of SEAP, according to manufacturer's specifications. The percent inhibition is determined as the % reduction in the HEK-Blue signal present in wells treated with agonist plus DMSO alone compared to wells treated with a known inhibitor.
# [2] = biological target: T2, human TLR7 (Homo sapiens, UniProt Q9NYK1); test: TLR7 inhibition reporter assay (HEK-Blue cells, SEAP reporter, gardiquimod stimulation); type: cell-based; settings: HEK-Blue cells overexpressing human TLR7, gardiquimod 7.5 μM
# T2 construct: host or cells: HEK-Blue cells
# T2 sequence (Q9NYK1 27-1049): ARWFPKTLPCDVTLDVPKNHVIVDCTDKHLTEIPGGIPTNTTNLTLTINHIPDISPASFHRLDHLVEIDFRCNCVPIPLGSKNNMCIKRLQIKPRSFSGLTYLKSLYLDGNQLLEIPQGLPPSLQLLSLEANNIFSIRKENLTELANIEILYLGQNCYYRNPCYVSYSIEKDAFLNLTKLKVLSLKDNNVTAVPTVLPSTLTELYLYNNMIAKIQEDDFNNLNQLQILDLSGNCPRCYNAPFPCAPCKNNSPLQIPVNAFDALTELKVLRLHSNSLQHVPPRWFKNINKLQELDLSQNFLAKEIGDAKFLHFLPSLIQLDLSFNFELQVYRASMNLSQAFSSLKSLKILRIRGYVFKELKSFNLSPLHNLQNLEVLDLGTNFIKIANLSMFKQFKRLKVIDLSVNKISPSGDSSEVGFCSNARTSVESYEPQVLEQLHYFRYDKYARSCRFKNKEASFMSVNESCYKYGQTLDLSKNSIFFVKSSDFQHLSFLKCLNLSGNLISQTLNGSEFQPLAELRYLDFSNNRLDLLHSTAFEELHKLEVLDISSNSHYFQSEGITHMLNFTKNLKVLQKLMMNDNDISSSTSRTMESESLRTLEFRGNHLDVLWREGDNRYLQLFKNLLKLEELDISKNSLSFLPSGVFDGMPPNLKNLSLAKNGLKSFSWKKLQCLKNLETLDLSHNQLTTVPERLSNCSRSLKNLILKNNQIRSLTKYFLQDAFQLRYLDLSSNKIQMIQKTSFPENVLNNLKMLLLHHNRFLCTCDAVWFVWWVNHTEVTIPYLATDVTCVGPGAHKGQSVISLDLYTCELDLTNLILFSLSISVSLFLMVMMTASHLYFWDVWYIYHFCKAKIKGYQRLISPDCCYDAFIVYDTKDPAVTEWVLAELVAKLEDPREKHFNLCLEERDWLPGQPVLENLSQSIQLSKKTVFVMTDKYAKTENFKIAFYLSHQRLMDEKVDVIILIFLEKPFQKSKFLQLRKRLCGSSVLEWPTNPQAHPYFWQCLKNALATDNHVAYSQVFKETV
# Protocol: as §1
# Briefly, cells are seeded into Greiner 384 well plates (15000 cells per well for TLR7, 20,000 for TLR8 and 25,000 for TLR9) and then treated with test compounds in DMSO to yield a final dose response concentration range of 0.05 nM-50 μM. […] After a 22 hour incubation at 37° C., 5% CO2, SEAP levels are determined with the addition of HEK-Blue™ Detection reagent (Invivogen), a cell culture medium that allows for detection of SEAP, according to manufacturer's specifications. The percent inhibition is determined as the % reduction in the HEK-Blue signal present in wells treated with agonist plus DMSO alone compared to wells treated with a known inhibitor.
pIC50 [1],pIC50 [2],Structure (SMILES)
6.92,6.16,"COc1ccc(-c2[nH]c3ccc(C4CCN(Cc5ccc(N6CCN(C)CC6)cc5)CC4)cc3c2C)cc1OC [Example 42, 2-(3,4-dimethoxyphenyl)-3-methyl-5-(1-(4-(4-methylpiperazin-1-yl)benzyl)piperidin-4-yl)-1H-indole]"
6.13,5.48,"COc1ccc(-c2[nH]c3ccc(C4CCN(Cc5ccc(N6CCCC6)cc5)CC4)cc3c2C)cc1OC [Example 46, 2-(3,4-dimethoxyphenyl)-3-methyl-5-(1-(4-(pyrrolidin-1-yl)benzyl)piperidin-4-yl)-1H-indole]"
5.97,6.23,"COc1ccc(-c2[nH]c3ccc(C4CCN(Cc5cccnc5)CC4)cc3c2C)cc1OC [Example 47, 2-(3,4-dimethoxyphenyl)-3-methyl-5-(1-(pyridin-3-ylmethyl)piperidin-4-yl)-1H-indole]"
7.05,6.62,"CCC(C)CN1CCC(N2CCC(c3ccc4[nH]c(-c5ccc(OC)c(OC)c5)c(C)c4c3)CC2)CC1 (centres unmarked) [Example 51, 2-(3,4-dimethoxyphenyl)-3-methyl-5-(1′-(2-methylbutyl)-[1,4′-bipiperidin]-4-yl)-1H-indole]"
6.94,6.73,"COc1ccc(-c2[nH]c3ccc(C4CCN(C5CCN(CCCSC)CC5)CC4)cc3c2C)cc1OC [Example 53, 2-(3,4-dimethoxyphenyl)-3-methyl-5-(1′-(3-(methylthio)propyl)-[1,4′-bipiperidin]-4-yl)-1H-indole]"
6.62,6.23,"CCC(CC)CN1CCC(N2CCC(c3ccc4[nH]c(-c5ccc(OC)c(OC)c5)c(C)c4c3)CC2)CC1 [Example 54, 2-(3,4-dimethoxyphenyl)-5-(1′-(2-ethylbutyl)-[1,4′-bipiperidin]-4-yl)-3-methyl-1H-indole]"
6.66,6.39,"COc1ccc(-c2[nH]c3ccc(C4CCN(C5CCN(CCC(C)O)CC5)CC4)cc3c2C)cc1OC (centres unmarked) [Example 56, 4-(4-(2-(3,4-dimethoxyphenyl)-3-methyl-1H-indol-5-yl)-[1,4′-bipiperidin]-1′-yl)butan-2-ol]"
6.95,6.57,"CCOC(=O)C1CC1CN1CCC(N2CCC(c3ccc4[nH]c(-c5ccc(OC)c(OC)c5)c(C)c4c3)CC2)CC1 (centres unmarked) [Example 60, ethyl 2-((4-(2-(3,4-dimethoxyphenyl)-3-methyl-1H-indol-5-yl)-[1,4′-bipiperidin]-1′-yl)methyl)cyclopropane-1-carboxylate]"
6.26,5.80,"COc1ccc(-c2[nH]c3ccc(C4CCN(C5CCN(C6CCC6)CC5)CC4)cc3c2C)cc1OC [Example 61, 5-(1′-cyclobutyl-[1,4′-bipiperidin]-4-yl)-2-(3,4-dimethoxyphenyl)-3-methyl-1H-indole]"
6.88,6.49,"CCCN1CCC(N2CCC(c3ccc4[nH]c(-c5ccc(OC)c(OC)c5)c(C)c4c3)CC2)CC1 [Example 63, 2-(3,4-dimethoxyphenyl)-3-methyl-5-(1′-propyl-[1,4′-bipiperidin]-4-yl)-1H-indole]"
7.15,5.71,"COc1ccc(-c2[nH]c3ccc(C4CCN(C5CCN(C6CCCC(C)C6)CC5)CC4)cc3c2C)cc1OC (centres unmarked) [Example 67, 2-(3,4-dimethoxyphenyl)-3-methyl-5-(1′-(3-methylcyclohexyl)-[1,4′-bipiperidin]-4-yl)-1H-indole]"
5.64,5.43,"COc1ccc(-c2[nH]c3ccc(C4CCN(C5CCN(CCCC(=O)O)CC5)CC4)cc3c2C)cc1OC [Example 70, 4-(4-(2-(3,4-dimethoxyphenyl)-3-methyl-1H-indol-5-yl)-[1,4′-bipiperidin]-1′-yl)butanoic acid]"
7.01,6.27,"CCC(C)N1CCC(N2CCC(c3ccc4[nH]c(-c5ccc(OC)c(OC)c5)c(C)c4c3)CC2)CC1 (centres unmarked) [Example 71, 5-(1′-(sec-butyl)-[1,4′-bipiperidin]-4-yl)-2-(3,4-dimethoxyphenyl)-3-methyl-1H-indole]"
7.00,5.29,COc1ccc(-c2[nH]c3ccc(C4CCN(C5CCN(C6CCCC(C(F)(F)F)C6)CC5)CC4)cc3c2C)cc1OC (centres unmarked) [Example 73]
6.66,6.28,"COc1ccc(-c2[nH]c3ccc(C4CCN(C5CCN(CCC(C)C)CC5)CC4)cc3c2C)cc1OC [Example 77, 2-(3,4-dimethoxyphenyl)-5-(1′-isopentyl-[1,4′-bipiperidin]-4-yl)-3-methyl-1H-indole]"
6.91,5.63,COc1ccc(-c2[nH]c3ccc(C4CCN(C5CCN(C6CCCC(C(F)(F)F)C6)CC5)CC4)cc3c2C)cc1OC (centres unmarked) [Example 79]
6.72,6.27,"COc1ccc(-c2[nH]c3ccc(C4CCN(C5CCN(C6CCN(C)CC6)CC5)CC4)cc3c2C)cc1OC [Example 81, 2-(3,4-dimethoxyphenyl)-3-methyl-5-(1″-methyl-[1,4′:1′,4″-terpiperidin]-4-yl)-1H-indole]"
6.78,6.84,"CCCCN1CCC(N2CCC(c3ccc4[nH]c(-c5ccc(OC)c(OC)c5)c(C)c4c3)CC2)CC1 [Example 82, 5-(1′-butyl-[1,4′-bipiperidin]-4-yl)-2-(3,4-dimethoxyphenyl)-3-methyl-1H-indole]"
5.81,5.58,"COc1ccc(-c2[nH]c3ccc(C4CCN(C5CCN(C6COC6)CC5)CC4)cc3c2C)cc1OC [Example 83, 2-(3,4-dimethoxyphenyl)-3-methyl-5-(1′-(oxetan-3-yl)-[1,4′-bipiperidin]-4-yl)-1H-indole]"
